# Measurements taken from paper PMC10794144, “A novel antibiotic class targeting the lipopolysaccharide transporter” (Nature, 2024).
# Where two headings read alike, the source gives them in different places.
# Columns and labels:
# [1] = molecular target: T1, 5HT1A (Homo sapiens, UniProt P08908); assay: Off-target screening (CEREP); assay type: binding; settings: read-out: percent inhibition
# T1 construct: purchased Eurofins CEREP SA
# T1 sequence (P08908 1-422): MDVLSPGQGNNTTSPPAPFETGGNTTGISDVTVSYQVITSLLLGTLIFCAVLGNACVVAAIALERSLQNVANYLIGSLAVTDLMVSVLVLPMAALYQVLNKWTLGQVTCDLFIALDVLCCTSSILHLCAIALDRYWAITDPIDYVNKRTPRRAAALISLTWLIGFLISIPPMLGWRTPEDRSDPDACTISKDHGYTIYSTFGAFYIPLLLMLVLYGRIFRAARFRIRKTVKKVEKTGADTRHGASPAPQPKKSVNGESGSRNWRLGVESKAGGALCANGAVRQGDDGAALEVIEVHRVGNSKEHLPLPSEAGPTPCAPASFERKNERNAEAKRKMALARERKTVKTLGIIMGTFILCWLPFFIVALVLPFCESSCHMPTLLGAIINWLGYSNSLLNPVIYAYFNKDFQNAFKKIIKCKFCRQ
# Description: (§1) Supplementary Table 1 │ Off-target activity screening f or MCP compou nds […]
# (§2) The assays given in the table above were conducted at Eurofins CEREP S A (Celle-Lévescault, France) and were run as single point measurements in duplicates in the presence of 10 µ M of the test compound and reported as percent inhibition of the radioligand signal or control enzymatic activity. n.d., not
# [2] = molecular target: T2, 5HT3 (Homo sapiens, UniProt P46098); assay: Off-target screening (CEREP); assay type: binding; settings: read-out: percent inhibition
# T2 construct: purchased Eurofins CEREP SA
# T2 sequence (P46098 24-478): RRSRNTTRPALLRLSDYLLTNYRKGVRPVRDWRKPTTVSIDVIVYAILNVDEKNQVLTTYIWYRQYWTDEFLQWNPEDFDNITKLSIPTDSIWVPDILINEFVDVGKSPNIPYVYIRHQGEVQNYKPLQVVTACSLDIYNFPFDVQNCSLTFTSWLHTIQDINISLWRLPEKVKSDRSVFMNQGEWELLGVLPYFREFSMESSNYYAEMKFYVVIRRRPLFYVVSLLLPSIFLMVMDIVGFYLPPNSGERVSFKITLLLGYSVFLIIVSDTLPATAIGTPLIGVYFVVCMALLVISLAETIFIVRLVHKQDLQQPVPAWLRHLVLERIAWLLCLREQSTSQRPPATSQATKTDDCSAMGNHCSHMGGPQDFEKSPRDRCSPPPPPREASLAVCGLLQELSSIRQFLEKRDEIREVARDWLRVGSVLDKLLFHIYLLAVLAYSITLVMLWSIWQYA
# Description: as §1, §2
# [3] = molecular target: T3, Androgen receptor (Homo sapiens, UniProt P10275); assay: Off-target screening (CEREP); assay type: binding; settings: read-out: percent inhibition
# T3 construct: purchased Eurofins CEREP SA
# T3 sequence (P10275 1-920): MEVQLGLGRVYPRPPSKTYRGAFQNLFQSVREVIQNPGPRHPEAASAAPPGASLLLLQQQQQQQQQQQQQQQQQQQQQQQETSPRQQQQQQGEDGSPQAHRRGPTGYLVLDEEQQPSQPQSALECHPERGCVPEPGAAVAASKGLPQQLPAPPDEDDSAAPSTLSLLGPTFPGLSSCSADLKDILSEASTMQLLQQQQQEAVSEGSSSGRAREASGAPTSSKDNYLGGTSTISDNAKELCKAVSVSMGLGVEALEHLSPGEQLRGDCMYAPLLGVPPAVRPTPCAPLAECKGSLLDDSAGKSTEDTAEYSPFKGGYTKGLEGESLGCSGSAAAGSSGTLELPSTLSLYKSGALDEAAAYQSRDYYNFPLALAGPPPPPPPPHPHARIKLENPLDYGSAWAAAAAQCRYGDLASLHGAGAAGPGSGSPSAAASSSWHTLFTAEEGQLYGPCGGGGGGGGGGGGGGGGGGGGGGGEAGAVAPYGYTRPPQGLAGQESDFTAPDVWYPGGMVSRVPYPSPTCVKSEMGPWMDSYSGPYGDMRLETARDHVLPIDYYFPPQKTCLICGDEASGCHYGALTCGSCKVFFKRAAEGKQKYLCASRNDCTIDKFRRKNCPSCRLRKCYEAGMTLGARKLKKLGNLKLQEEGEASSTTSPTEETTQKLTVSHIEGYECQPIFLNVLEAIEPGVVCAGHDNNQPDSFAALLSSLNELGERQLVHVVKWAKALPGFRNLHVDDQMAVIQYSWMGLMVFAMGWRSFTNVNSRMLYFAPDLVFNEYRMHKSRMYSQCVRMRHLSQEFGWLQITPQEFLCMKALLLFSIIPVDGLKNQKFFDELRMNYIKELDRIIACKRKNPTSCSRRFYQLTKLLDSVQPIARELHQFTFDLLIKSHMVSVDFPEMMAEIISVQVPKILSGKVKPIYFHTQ
# Description: as §1, §2
# [4] = molecular target: T4, Cholecystokinin 1 receptor (Homo sapiens, UniProt P32238); assay: Off-target screening (CEREP); assay type: binding; settings: read-out: percent inhibition
# T4 construct: purchased Eurofins CEREP SA
# T4 sequence (P32238 1-428): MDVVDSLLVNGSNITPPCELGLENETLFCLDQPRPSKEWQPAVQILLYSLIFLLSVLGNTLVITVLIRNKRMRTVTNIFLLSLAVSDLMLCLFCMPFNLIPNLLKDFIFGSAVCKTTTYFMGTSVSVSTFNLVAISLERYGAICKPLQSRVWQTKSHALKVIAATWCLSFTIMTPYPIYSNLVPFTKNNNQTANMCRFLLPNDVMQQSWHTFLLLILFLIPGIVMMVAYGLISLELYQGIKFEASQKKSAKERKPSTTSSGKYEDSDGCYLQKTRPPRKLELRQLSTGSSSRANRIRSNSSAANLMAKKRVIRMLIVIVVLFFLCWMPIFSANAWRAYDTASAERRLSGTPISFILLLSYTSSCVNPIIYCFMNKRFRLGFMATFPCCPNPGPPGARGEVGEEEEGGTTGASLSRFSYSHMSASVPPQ
# Description: as §1, §2
# [5] = molecular target: T5, Dopamine D2 receptor (Homo sapiens, UniProt P14416); assay: Off-target screening (CEREP); assay type: binding; settings: read-out: percent inhibition
# T5 construct: purchased Eurofins CEREP SA
# Description: as §1, §2
# [6] = molecular target: T6, Histamine H3 receptor (Homo sapiens, UniProt Q9Y5N1); assay: Off-target screening (CEREP); assay type: binding; settings: read-out: percent inhibition
# T6 construct: purchased Eurofins CEREP SA
# Description: as §1, §2
# [7] = Micronucleus test (MNT)
# [8] = system: Ca2+ channel (diltiazem site); assay: Off-target screening (CEREP); assay type: binding, rat; settings: 10 µM, duplicates
# Description: as §1, §2
# [9] = system: GABA Cl- channel receptor; assay: Off-target screening (CEREP); assay type: binding, rat; settings: 10 µM, duplicates
# Description: as §1, §2
# [10] = system: PCP receptor; assay: Off-target screening (CEREP); assay type: binding, rat; settings: 10 µM, duplicates
# Description: as §1, §2
# T5 sequence (P14416 whole entry): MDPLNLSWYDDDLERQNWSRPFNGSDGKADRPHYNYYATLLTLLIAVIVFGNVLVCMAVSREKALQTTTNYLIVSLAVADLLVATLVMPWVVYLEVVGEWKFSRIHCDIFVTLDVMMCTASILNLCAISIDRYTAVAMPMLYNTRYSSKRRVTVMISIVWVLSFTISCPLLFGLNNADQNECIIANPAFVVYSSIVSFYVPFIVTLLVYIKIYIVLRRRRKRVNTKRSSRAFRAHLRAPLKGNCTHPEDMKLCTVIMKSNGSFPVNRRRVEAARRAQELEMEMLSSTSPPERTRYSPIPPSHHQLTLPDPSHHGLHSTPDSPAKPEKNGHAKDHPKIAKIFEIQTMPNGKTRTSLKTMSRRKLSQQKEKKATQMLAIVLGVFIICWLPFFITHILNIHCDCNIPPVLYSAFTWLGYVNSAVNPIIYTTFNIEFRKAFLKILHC
# T6 sequence (Q9Y5N1 whole entry): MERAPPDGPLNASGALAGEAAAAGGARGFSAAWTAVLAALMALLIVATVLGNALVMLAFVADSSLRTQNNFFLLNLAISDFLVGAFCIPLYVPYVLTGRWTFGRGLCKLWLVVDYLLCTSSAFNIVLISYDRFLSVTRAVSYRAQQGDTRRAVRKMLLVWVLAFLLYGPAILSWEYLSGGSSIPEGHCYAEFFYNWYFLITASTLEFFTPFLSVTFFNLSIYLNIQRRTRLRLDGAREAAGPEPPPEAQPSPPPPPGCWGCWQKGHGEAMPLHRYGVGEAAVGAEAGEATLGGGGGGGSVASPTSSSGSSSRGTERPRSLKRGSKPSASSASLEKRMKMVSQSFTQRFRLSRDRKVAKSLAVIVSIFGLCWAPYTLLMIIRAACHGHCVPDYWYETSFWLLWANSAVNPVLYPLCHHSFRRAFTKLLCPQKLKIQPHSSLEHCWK
SMILES,"inhibition at 10 µM ([1]; 10 µM, duplicates)","inhibition at 10 µM ([2]; 10 µM, duplicates)","inhibition at 10 µM ([3]; 10 µM, duplicates)","inhibition at 10 µM ([4]; 10 µM, duplicates)","inhibition at 10 µM ([5]; 10 µM, duplicates)","inhibition at 10 µM ([6]; 10 µM, duplicates)",MNT [7],inhibition at 10 µM [1],inhibition at 10 µM [2],inhibition at 10 µM [3],inhibition at 10 µM [4],inhibition at 10 µM [5],inhibition at 10 µM [6],percent inhibition [8],percent inhibition [9],percent inhibition [10]
CN1C(=O)[C@H](CCCN)NC(=O)[C@H](CCCN)NCc2ccccc2Sc2ccccc2CNC(=O)[C@@H]1Cc1c[nH]c2ccccc12 [RO7036668],33%,6%,6%,22%,74%,12%,,,,,,,,,,
CN1C(=O)[C@H](CCCCN)NC(=O)[C@H](CCCN)NCc2cccnc2Sc2c(Cl)ccc(Cl)c2CNC(=O)[C@@H]1Cc1c[nH]c2ccccc12 [RO7075573],,,,,,,Negative,11%,8%,-4%,32%,28%,-4%,-1%,-9%,-10%
CN1C(=O)[C@H](CCCCN)NC(=O)[C@H](CCCN)NCc2cccnc2Sc2c(Cl)ccc(-c3ccc(C(=O)O)cc3)c2CNC(=O)[C@@H]1Cc1c[nH]c2ccccc12 [RO7202110],13%,6%,3%,0%,28%,5%,Negative,,,,,,,2%,-1%,9%
CN1C(=O)[C@H](CCCCN)NC(=O)[C@H](CCCN)NCc2cccnc2Sc2cccc(-c3ccc(C(=O)O)cc3)c2CNC(=O)[C@@H]1Cc1c[nH]c2ccccc12 [zosurabalpin],,,,,,,Negative,0%,3%,-5%,-1%,14%,5%,-11%,1%,-24%
